Results on two compounds are retold here after article PMC7238120, “Strong and Selective Inhibitory Effects of the Biflavonoid Selamariscina A against CYP2C8 and CYP2C9 Enzyme Activities in Human Liver Microsomes” (Pharmaceutics, 2020).

For experiment [1], the target named is T1, UGT2B7 (Homo sapiens, UniProt P16662).
T1 construct: tissue XenoTech XTreme 200; host or cells: pooled human liver microsomes
Nature of the experiment: Inhibition of UGT2B7 (naloxone glucuronidation) in human liver microsomes. In kind it is in vitro ADME. Conditions: substrate naloxone; HLMs. On the procedure: The ability of selamariscina A to inhibit the metabolism of six UGT enzyme probe substrates was evaluated using previously developed methods with minor modifications. The microsomal incubation was performed by dividing the non-interactive substrate cocktail sets (set A included SN-38 for UGT1A1, CDCA for UGT1A3 and TFP for UGT1A4 while set B included N-SER for UGT1A6, MPA for UGT1A9 and NX for UGT2B7) (Table 2). In brief, HLMs (0.25 mg/mL) were activated by incubation in the presence of alamethicin (25 µg/mL) for 15 min on ice. After the addition of UGT probe substrates and inhibitor (0, 0.5, 2, 5, 20 and 50 μM), the incubation mixtures were pre-incubated at 37 °C for 5 min. […] After centrifugation at 18,000 g (5 min, 4 °C), aliquots of supernatants were analyzed by LC–MS/MS. […]
All metabolites and the IS were separated on a Kinetex XB-C18 column (100 × 2.10 mm, 2.6 μm, 100 Å; Phenomenex, Torrance, CA, USA) and analyzed using a Shimadzu LCMS 8060 triple-quadrupole mass spectrometer coupled with a Nexera X2 ultra high-performance liquid chromatography system (Shimadzu, Kyoto, Japan) equipped with an electrospray ionization interface. […] Quantitation was conducted in selected reaction monitoring (SRM) modes with the precursor-to-product ion transition for each metabolite (Table 1 and Table 2).
We analyzed the data with Shimadzu LabSolution LC–MS software. […]
In general terms: Liver microsomes are vesicles of endoplasmic reticulum, rich in cytochrome P450 enzymes.

Experiment [2] concerns the target T2, UGT1A1 (Homo sapiens, UniProt P22309).
T2 sequence (P22309 26-533): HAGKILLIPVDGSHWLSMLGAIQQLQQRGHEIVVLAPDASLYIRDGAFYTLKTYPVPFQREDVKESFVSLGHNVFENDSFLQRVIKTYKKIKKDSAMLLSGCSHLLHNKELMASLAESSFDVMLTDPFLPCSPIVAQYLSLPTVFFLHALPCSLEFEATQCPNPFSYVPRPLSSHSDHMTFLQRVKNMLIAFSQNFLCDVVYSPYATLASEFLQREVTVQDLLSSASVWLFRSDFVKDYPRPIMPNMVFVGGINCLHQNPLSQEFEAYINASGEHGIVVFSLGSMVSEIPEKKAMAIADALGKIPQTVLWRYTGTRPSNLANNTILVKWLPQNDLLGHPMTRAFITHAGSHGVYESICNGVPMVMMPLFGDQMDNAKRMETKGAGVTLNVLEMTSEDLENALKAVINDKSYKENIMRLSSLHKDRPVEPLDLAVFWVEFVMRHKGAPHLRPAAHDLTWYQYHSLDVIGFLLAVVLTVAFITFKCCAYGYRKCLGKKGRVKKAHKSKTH
Further details: method as in PMID 29470958. Conditions: read-out: IC50, UGT1A1, previously reported value; cited from earlier work.

Structures are written as SMILES.

T1 sequence (P16662 24-529): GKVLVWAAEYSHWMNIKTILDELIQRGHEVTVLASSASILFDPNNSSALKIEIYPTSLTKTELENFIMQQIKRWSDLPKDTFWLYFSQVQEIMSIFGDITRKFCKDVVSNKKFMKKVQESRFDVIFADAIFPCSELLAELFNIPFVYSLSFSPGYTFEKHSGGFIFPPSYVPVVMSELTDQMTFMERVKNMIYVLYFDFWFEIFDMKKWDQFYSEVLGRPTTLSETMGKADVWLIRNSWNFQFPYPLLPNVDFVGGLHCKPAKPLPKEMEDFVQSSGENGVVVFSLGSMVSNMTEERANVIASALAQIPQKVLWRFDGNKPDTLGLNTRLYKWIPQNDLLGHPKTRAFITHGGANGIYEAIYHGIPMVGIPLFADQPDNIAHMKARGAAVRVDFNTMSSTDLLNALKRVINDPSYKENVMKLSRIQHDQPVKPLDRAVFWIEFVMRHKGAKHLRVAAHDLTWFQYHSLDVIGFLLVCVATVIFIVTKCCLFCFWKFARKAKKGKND

With `O=C1CC(c2cc(-c3c(O)ccc4c(=O)cc(-c5ccc(O)cc5)oc34)c(O)cc2O)Oc2cc(O)cc(O)c21` (centres unmarked) [selamariscina A], the 50% inhibitory concentration (IC50) in experiment [1] was more than 50000 nM.

Consider `O=c1cc(-c2ccc(O)c(-c3c(O)cc(O)c4c(=O)cc(-c5ccc(O)cc5)oc34)c2)oc2cc(O)cc(O)c12` [amentoflavone], for which the IC50 in experiment [2] was 780 nM.

For orientation: IC50 means the concentration needed to halve the response being measured.
